Patent US8067620B2, “Dispiro 1,2,4-trioxolane antimalarials” (Medicines for Malaria Venture MMV, priority 2005, dated 2011)

Tests used:
[1] = tested on: ANKA strain of P. berghei; assay: Single dose in vivo screen in P. berghei-infected NMRI mice; conditions: for Survival (days) 30 mg/kg SSV po / Activity (%) 30 mg/kg SSV po: single 30 mg/kg po dose in SSV one day post-infection; for Activity (%) 30 mg/kg SSV po: percent reduction in parasitemia on day three post-infection; for Cures 30 mg/kg SSV po: single 30 mg/kg po dose in SSV, cure = survival to day 30 post-infection, groups of five mice
Protocol: Activity of 1,2,4-trioxolanes against P. berghei in vivo. In the single dose in vivo screen, NMRI mice infected with the ANKA strain of P. berghei (groups of five mice) were treated one day post-infection with trioxolanes dissolved or suspended in standard suspending vehicle (SSV). The SSV consists of either 0.5% w/v carboxymethyl cellulose, 0.5% v/v benzyl alcohol, 0.4% v/v Tween 80, and 0.9% w/v sodium chloride in water or 0.5% hydroxypropylmethylcellulose 0.4% v/s Tween 80, and 0.5% v/v benzyl alcohol in water. […] Antimalarial activity was measured by percent reduction in parasitemia on day three post-infection and survival times compared to an untreated control group. Survival to day 30 post-infection is considered to be a cure in this model.

P. berghei = assay: Prophylactic activity against P. berghei in vivo (mice dosed before infection); conditions: for Cures 24 h prior to infection (30 mg/kg) / Activity (%) 24 h prior to infection (30 mg/kg): single 30 mg/kg oral dose 24 h prior to infection; for Cures 24 h prior to infection (30 mg/kg) / Cures 48 h prior to infection (100 mg/kg): n=5 mice; for Activity (%) 24 h prior to infection (30 mg/kg) / Activity (%) 48 h prior to infection (100 mg/kg): parasitemia day 3 post-infection; for Cures 48 h prior to infection (100 mg/kg) / Activity (%) 48 h prior to infection (100 mg/kg): single 100 mg/kg oral dose 48 h prior to infection
Protocol: All groups (n=5 mice per group) including an untreated control group, were infected at the same time and parasitemia was determined for each animal on day 3 post-infection and compared with the level of parasitemia in control animals.

Structure (SMILES): O=C1CCC([C@H]2CC[C@]3(CC2)OOC2(O3)C3CC4CC(C3)CC2C4)CC1 (some centres unmarked) [OZ495]
- Survival (days) 30 mg/kg SSV po [1]: 26.8 days
- Activity (%) 30 mg/kg SSV po [1]: 99.3%
- Cures 30 mg/kg SSV po [1]: 3/5
- Cures 24 h prior to infection (30 mg/kg) (P. berghei): 1/5
- Activity (%) 24 h prior to infection (30 mg/kg) (P. berghei): >99.9%
- Cures 48 h prior to infection (100 mg/kg) (P. berghei): 0/5
- Activity (%) 48 h prior to infection (100 mg/kg) (P. berghei): >99.9%

Structure (SMILES): CS(=O)(=O)N1CCN(CCOc2ccc([C@H]3CC[C@]4(CC3)OOC3(O4)C4CC5CC(C4)CC3C5)cc2)CC1.CS(=O)(=O)O (some centres unmarked) [OZ485]
- Cures 24 h prior to infection (30 mg/kg) (P. berghei): 3/5
- Activity (%) 24 h prior to infection (30 mg/kg) (P. berghei): >99.9%
- Cures 48 h prior to infection (100 mg/kg) (P. berghei): 5/5
- Activity (%) 48 h prior to infection (100 mg/kg) (P. berghei): >99.9%

Structure (SMILES): CC(C)(N)CCOc1ccc(C2CCC3(CC2)OOC2(O3)C3CC4CC(C3)CC2C4)cc1.Cc1ccc(S(=O)(=O)O)cc1 (centres unmarked) [OZ539]
- Survival (days) 30 mg/kg SSV po [1]: 25.2 days
- Activity (%) 30 mg/kg SSV po [1]: 99.7%
- Cures 30 mg/kg SSV po [1]: 3/5
- Malaria-curative with a single dose ([1]; single dose, dose not stated): malaria-curative in some instances with a single dose
- Cures 24 h prior to infection (30 mg/kg) (P. berghei): 4/5
- Activity (%) 24 h prior to infection (30 mg/kg) (P. berghei): >99.9%
- Cures 48 h prior to infection (100 mg/kg) (P. berghei): 5/5
- Activity (%) 48 h prior to infection (100 mg/kg) (P. berghei): >99.9%

Structure (SMILES): OC1CCN(CCOc2ccc([C@H]3CC[C@]4(CC3)OOC3(O4)C4CC5CC(C4)CC3C5)cc2)CC1 (some centres unmarked) [OZ513]
- Cures 24 h prior to infection (30 mg/kg) (P. berghei): 1/5
- Activity (%) 24 h prior to infection (30 mg/kg) (P. berghei): 99.9%
- Cures 48 h prior to infection (100 mg/kg) (P. berghei): 5/5
- Activity (%) 48 h prior to infection (100 mg/kg) (P. berghei): 99.7%

Structure (SMILES): CS(=O)(=O)O.c1cc(C2CCC3(CC2)OOC2(O3)C3CC4CC(C3)CC2C4)ccc1OCCN1CCSCC1 (centres unmarked) [OZ460]
- Survival (days) 30 mg/kg SSV po [1]: 25.0 days
- Activity (%) 30 mg/kg SSV po [1]: 99%
- Cures 30 mg/kg SSV po [1]: 3/5
- Cures 24 h prior to infection (30 mg/kg) (P. berghei): 3/5
- Activity (%) 24 h prior to infection (30 mg/kg) (P. berghei): 99.8%
- Cures 48 h prior to infection (100 mg/kg) (P. berghei): 5/5
- Activity (%) 48 h prior to infection (100 mg/kg) (P. berghei): 99.6%

Structure (SMILES): CS(=O)(=O)O.NCCCCCOc1ccc(C2CCC3(CC2)OOC2(O3)C3CC4CC(C3)CC2C4)cc1 (centres unmarked) [OZ498]
- Cures 24 h prior to infection (30 mg/kg) (P. berghei): 4/5
- Activity (%) 24 h prior to infection (30 mg/kg) (P. berghei): 99.8%
- Cures 48 h prior to infection (100 mg/kg) (P. berghei): 5/5
- Activity (%) 48 h prior to infection (100 mg/kg) (P. berghei): 99.8%

Structure (SMILES): Cc1ccc(S(=O)(=O)O)cc1.O[C@H]1CC[C@H](NCCCOc2ccc([C@H]3CC[C@]4(CC3)OOC3(O4)C4CC5CC(C4)CC3C5)cc2)CC1 (some centres unmarked) [OZ535]
- Cures 24 h prior to infection (30 mg/kg) (P. berghei): 0/5
- Activity (%) 24 h prior to infection (30 mg/kg) (P. berghei): >99.9%
- Cures 48 h prior to infection (100 mg/kg) (P. berghei): 5/5
- Activity (%) 48 h prior to infection (100 mg/kg) (P. berghei): >99.9%

Structure (SMILES): C[C@H]1[C@H](OC(=O)CCC(=O)O)O[C@@H]2O[C@@]3(C)CC[C@H]4[C@H](C)CC[C@@H]1[C@@]24OO3 [AS, artesunate, reference compound]
- Survival (days) 30 mg/kg SSV po [1]: 9.0 days
- Activity (%) 30 mg/kg SSV po [1]: 92%
- Cures 30 mg/kg SSV po [1]: 0/5
- Cures 24 h prior to infection (30 mg/kg) (P. berghei): 0/5
- Activity (%) 24 h prior to infection (30 mg/kg) (P. berghei): 21%
- Cures 48 h prior to infection (100 mg/kg) (P. berghei): 0/5
- Activity (%) 48 h prior to infection (100 mg/kg) (P. berghei): 0%

Structure (SMILES): CC(C)(O)CNCCCOc1ccc([C@H]2CC[C@]3(CC2)OOC2(O3)C3CC4CC(C3)CC2C4)cc1.Cc1ccc(S(=O)(=O)O)cc1 (some centres unmarked) [OZ505]
- Cures 24 h prior to infection (30 mg/kg) (P. berghei): 2/5
- Activity (%) 24 h prior to infection (30 mg/kg) (P. berghei): >99.9%
- Cures 48 h prior to infection (100 mg/kg) (P. berghei): 5/5
- Activity (%) 48 h prior to infection (100 mg/kg) (P. berghei): 99.5%

Structure (SMILES): O[C@H]1CC[C@@H](C2CCC3(CC2)OOC2(O3)C3CC4CC(C3)CC2C4)CC1 (some centres unmarked) [OZ508]
- Survival (days) 30 mg/kg SSV po [1]: 24.4 days
- Activity (%) 30 mg/kg SSV po [1]: 99.8%
- Cures 30 mg/kg SSV po [1]: 3/5
- Cures 24 h prior to infection (30 mg/kg) (P. berghei): 4/5
- Activity (%) 24 h prior to infection (30 mg/kg) (P. berghei): 99.7%
- Cures 48 h prior to infection (100 mg/kg) (P. berghei): 4/5
- Activity (%) 48 h prior to infection (100 mg/kg) (P. berghei): 99.8%
